Data published in patent US20030198614A1, “Hair growers” (priority 2000, published 2003).

Legend:
[1] = test system: C3H/He mice, whose hair cycle was at the telogen stage; assay: Hair regrowth effect test; assay type: in vivo; conditions: 0.1 ml once a day on shaved back, after 24 days, average of 6 mice
Description: The Compounds 1 to 5 described above were used as test materials. Each test material was dissolved in 70% ethanol aqueous solution and the solution was subjected to the application as a sample (test material concentration: 50 nM and 100 nM). 70% Ethanol was also used as a control sample.
The hair regrowth effect test was performed using C3H/He mice, whose hair cycle was at the telogen stage according to the method of Ogawa et. al. (Normal and Abnormal Epidermal Differentiation, Edited by M. Seiji and I. A. Bernstein, Pages 159-170, 1982, Todai Shuppan).
Namely, 6 mice were used in a group and their hair of the regions of back was shaved by hair clippers. 0.1 ml of sample was applied on the shaved regions once a day. After 24 days, the hair regrowth area was measured and the hair regrowth area rate was calculated based on the hair regrowth area with respect to the shaved area. The results are shown in Table 1 (expressed by average values).

[2] = test system: human hair follicle in the anagen stage; assay: Investigation of hair shaft elongation (organ culture of human hair follicle); assay type: cell-based; conditions: 1.0×10^-5 mol/L, 5-day incubation, 9 hair follicles per group
Description: A hair follicle in the anagen stage was isolated from a human scalp under a stereoscopic microscope observation, washed with “a medium prepared by adding penicillin, streptomycin and fungizone to Williams E medium (Gibco)” (hereinafter referred to as a (−) medium) and then examined for its length.
A medium obtained by supplementing the (−) medium further with 10 ng/ml hydrocortisone, 10 μg/ml insulin, 10 ng/ml sodium selenite and 10 μg/ml transferring (hereinafter ter referred to as a (+) medium) was dispensed in an aliquot of 1 ml per well into a 24-well microplate. The hair follicle described above was precipitated therein and incubated overnight at 37° C. in the presence of 5% CO2 (preincubation).
The elongation of the hair shaft in a hair follicle was determined by inspecting the microplate described above visually using an inverted microscope with a micrometer attached thereto.
A DMSO solution of a test material was added to a (−) medium for preparation. The final concentrations of the test material and DMSO were 1.0×10^−5 mol/L and 0.1%, respectively.
Only DMSO was added to a (−) medium at the final concentration of 0.1% for preparation.
The culture medium of the hair follicle groups described above was replaced each with the test materialcontaining medium or negative control medium, and the incubation was continued further for 5 days at 37° C. in the presence of 5% CO2. The length of each hair after 5-day incubation was measured, and the means were compared with each other.

[3] = test system: telogen hair roots of male subjects; assay: Trichogram test; assay type: in vivo, human; conditions: 50 nM in 70% ethanol, 2 ml twice a day on scalp for 6 months, 10 male subjects
Description: As test materials, Compound 1 and Compound 2 were employed. Each test material was dissolved in 70% ethanol similarly to Experiment 1 to obtain a sample (test material concentration: 50 nM).
The hair roots of hairs pulled out before and after the use of each sample were examined by a microscope to determine the telogen hair root count on the basis of the hair root morphology, and the increase or decrease in the rate was employed as an index for evaluating the hair growth promoting effect.
Specifically, each sample was applied onto the scalp of each of 10 male subjects twice a day in a 2 ml aliquot each time continuously for 6 months. 100 hairs per subject were pulled out immediately before the application and immediately after completion of 6-month application to count the telogen hair roots. The rate (%) of the number of the subjects whose telogen hair root after the application was decreased by 20% or more, changed by ±20% or increased by 20% or more with respect to that before the application was calculated.

SMILES	Hair regrowth area rate ([1]; 50 nM in 70% ethanol) [%]	Hair regrowth area rate ([1]; 100 nM in 70% ethanol) [%]	Mean of hair shaft elongation [2] [mm]	Rate of telogen hair root: 20% or more decrease (rate of subjects) [3] [%]	Rate of telogen hair root: 20% or more increse (rate of subjects) [3] [%]	Rate of telogen hair root: ±20% (rate of subjects) [3] [%]
CCCCCCCCCCCCCCCCOCC(COC)OC (stereo not drawn) [Compound 4, 1-(2,3-Dimethoxypropoxy)hexadecane]	68	78	1.9	–	–	–
CCCCCCCCCCCCCCCCOCCCO [Compound 3, 3-Hexadecyloxy-1-propanol]	15	74	1.6	–	–	–
CCCCCCCCCCCCCCCCOC(CO)COC (stereo not drawn) [Compound 1, 2-Hexadecyloxy-3-methoxy-1-propanol]	70	93	1.7	70	0	30
CCCCCCCCCCCCCCCCOCC(O)COC (stereo not drawn) [Compound 2, 1-Hexadecyloxy-3-methoxy-2-propanol]	65	88	1.5	60	10	30
CCCCCCCCCCCCCCCCCCC(CO)OC (stereo not drawn) [Compound 5, 2-Methoxy-1-eicosanol]	70	76	1.4	–	–	–
